{"source": "patent US20230413811A1", "about": "(priority 2020, published 2023)", "key": {"[1]": {"tested_on": "Phytophthora infestans strain Pi96", "type": "in vivo"}, "[2]": {"test": "Water solubility at different pH values", "type": "physicochemical", "details": "for solubility: water", "source_text": "The results are compiled in the table here below:"}, "[3]": {"details": "0.1 M carbonate buffer in water, aqueous buffer, pH 7, buffer 0.1M Carbonate"}, "[4]": {"details": "0.1 M citrate buffer in water, aqueous buffer, pH 4, buffer 0.1M Citrate"}, "[5]": {"details": "0.1 M glycine buffer in water, aqueous buffer, pH 10, buffer 0.1M Glycine"}}, "note": "Like-named read-outs stand apart in the source and are kept apart here.", "data": [{"smiles": "CCCCCCCCCCCCCCCCCC[S+](C)C.[Cl-]", "note": "[ODS-Cl, octadecyl dimethyl sulfonium chloride]", "values": [{"measurement": "Disease Severity Index (%)", "setting": "[1]; 10 ppm, 3 dpi", "result": 10.3, "unit": "%"}, {"measurement": "Disease Severity Index (%)", "setting": "[1]; 10 ppm, 5 dpi", "result": 18.3, "unit": "%"}, {"measurement": "Disease Severity Index (%)", "setting": "[1]; 10 ppm, 7 dpi", "result": 39.7, "unit": "%"}, {"measurement": "Disease Severity Index (%)", "setting": "[1]; 10 ppm, 10 dpi", "result": 97.8, "unit": "%"}, {"measurement": "Fungicide efficacy (%) at 10 dpi", "setting": "[1]; 10 ppm, 10 dpi", "result": 0.0, "unit": "%"}, {"measurement": "Disease Severity Index (%)", "setting": "[1]; 50 ppm, 3 dpi", "result": 8.7, "unit": "%"}, {"measurement": "Disease Severity Index (%)", "setting": "[1]; 50 ppm, 5 dpi", "result": 15.6, "unit": "%"}, {"measurement": "Disease Severity Index (%)", "setting": "[1]; 50 ppm, 7 dpi", "result": 40.0, "unit": "%"}, {"measurement": "Disease Severity Index (%)", "setting": "[1]; 50 ppm, 10 dpi", "result": 89.4, "unit": "%"}, {"measurement": "Fungicide efficacy (%) at 10 dpi", "setting": "[1]; 50 ppm, 10 dpi", "result": 0.0, "unit": "%"}, {"measurement": "Disease Severity Index (%)", "setting": "[1]; 100 ppm, 3 dpi", "result": 5.5, "unit": "%"}, {"measurement": "Disease Severity Index (%)", "setting": "[1]; 100 ppm, 5 dpi", "result": 11.1, "unit": "%"}, {"measurement": "Disease Severity Index (%)", "setting": "[1]; 100 ppm, 7 dpi", "result": 27.8, "unit": "%"}, {"measurement": "Disease Severity Index (%)", "setting": "[1]; 100 ppm, 10 dpi", "result": 71.8, "unit": "%"}, {"measurement": "Fungicide efficacy (%) at 10 dpi", "setting": "[1]; 100 ppm, 10 dpi", "result": 12.5, "unit": "%"}, {"measurement": "Disease Severity Index (%)", "setting": "[1]; 500 ppm, 3 dpi", "result": 0.0, "unit": "%"}, {"measurement": "Disease Severity Index (%)", "setting": "[1]; 500 ppm, 5 dpi", "result": 0.0, "unit": "%"}, {"measurement": "Disease Severity Index (%)", "setting": "[1]; 500 ppm, 7 dpi", "result": 0.0, "unit": "%"}, {"measurement": "Disease Severity Index (%)", "setting": "[1]; 500 ppm, 10 dpi", "result": 0.0, "unit": "%"}, {"measurement": "Fungicide efficacy (%) at 10 dpi", "setting": "[1]; 500 ppm, 10 dpi", "result": 100.0, "unit": "%"}, {"measurement": "Disease Severity Index (%)", "setting": "[1]; 1000 ppm, 3 dpi", "result": 0.0, "unit": "%"}, {"measurement": "Disease Severity Index (%)", "setting": "[1]; 1000 ppm, 5 dpi", "result": 0.0, "unit": "%"}, {"measurement": "Disease Severity Index (%)", "setting": "[1]; 1000 ppm, 7 dpi", "result": 0.0, "unit": "%"}, {"measurement": "Disease Severity Index (%)", "setting": "[1]; 1000 ppm, 10 dpi", "result": 0.0, "unit": "%"}, {"measurement": "Fungicide efficacy (%) at 10 dpi", "setting": "[1]; 1000 ppm, 10 dpi", "result": 100.0, "unit": "%"}, {"measurement": "control of the disease (late blight)", "setting": "[1]; 1000 ppm, preventive treatment", "result": "full control"}, {"measurement": "dose from which efficient to protect potato leaves against late blight", "setting": "[1]; preventive treatment, detached potato leaves", "result": "≥ 100", "unit": "ppm"}, {"measurement": "solubility", "setting": "[2]; [3]", "result": 0.28, "unit": "mg/mL"}, {"measurement": "solubility", "setting": "[2]; [4]", "result": 1.32, "unit": "mg/mL"}, {"measurement": "solubility", "setting": "[2]; [5]", "result": 0.94, "unit": "mg/mL"}, {"measurement": "solubility in water compared with octadecyl dimethyl sulfonium iodide", "setting": "[2]; comparison chloride vs iodide", "result": "higher solubility in water"}, {"measurement": "pH at which the water solubility has a minimum", "setting": "[2]; solubility increases below and above this pH", "result": "~7.0"}, {"measurement": "solubility", "setting": "[2]; pH 2.2, aqueous buffer", "result": 1.65, "unit": "mg/mL"}]}, {"smiles": "CCCCCCCCCCCCCCCCCC[S+](C)C.[I-]", "note": "[ODS-I, octadecyl dimethyl sulfonium iodide, reference compound]", "values": [{"measurement": "solubility", "setting": "[2]; [3]", "result": 0.08, "unit": "mg/mL"}, {"measurement": "solubility", "setting": "[2]; [4]", "result": 0.29, "unit": "mg/mL"}, {"measurement": "solubility", "setting": "[2]; [5]", "result": 0.03, "unit": "mg/mL"}, {"measurement": "solubility", "setting": "[2]; pH 5.5, aqueous buffer", "result": 0.12, "unit": "mg/mL"}]}]}
